Experiments:
Format in all cases: in vivo, SD rats (Sprague-Dawley rats)
[1] = system: SD rats with a high cholesterol diet (hyperlipidemia model); test: Measurement of blood lipid in high cholesterol diet SD rats; details: Ex. compositions 1000 mg/kg/day, atorvastatin 5 mg/kg/day
Experimental: 6-Week-old male SD rats (Sprague-Dawley rats, body weight 180-220 g) were purchased from BioLink (Eumseong, Republic of Korea) and acclimated for a week. […] Drinking water was freely supplied. A room temperature of 22.0+/−2.0° C., a relative humidity of 50.0+/−10.0%, an illumination time of 12 hours (08:00 to 20:00), and an illuminance of 150 to 300 lux were set.
At the end of the experiment, each group was sacrificed after fasting for 12 hours. Their blood was collected from the posterior vena cava and transferred to an EDTA tube to separate the plasma. In the separated plasma, total cholesterol (TC), LDL cholesterol (LDL-c), HDL cholesterol (HDL-c) and triglycerides (TG) were measured using a biochemical kit (Asan Pharmaceutical Co., Ltd., Seoul, Republic of Korea).
The atherogenic index (AI) was calculated by the following equation (1) according to a method of Haulund et al. and the cardiac risk factor (CRF) was calculated by the following equation (2). Atherogenic Index(AI)=[(TC)−(HDL-c)]/[(HDL-c)] (1) Cardiac Risk Factor(CRF)=(TC)/(HDL-c) (2)

[2] = system: SD rats with a high cholesterol diet (hyperlipidemia model); test: Lipid analysis of liver tissue in high cholesterol diet SD rats; details: liver lipid extract, oral, Ex. compositions 1,000 mg/kg, atorvastatin 5 mg/kg
Experimental: (§1) 6-Week-old male SD rats (Sprague-Dawley rats, body weight 180-220 g) were purchased from BioLink (Eumseong, Republic of Korea) and acclimated for a week. They were formed into groups of five rats as described in Table 2 below, and solid feed (Rodent NIH031 Open Formula Auto, Zeigler Bros., USA) and a high cholesterol diet (D12451 with 1.25% cholesterol, Research Diets Inc., USA) were freely fed. Drinking water was freely supplied. A room temperature of 22.0+/−2.0° C., a relative humidity of 50.0+/−10.0%, an illumination time of 12 hours (08:00 to 20:00), and an illuminance of 150 to 300 lux were set.
The total lipids in the liver were homogenized and then extracted using a Folch method. The extracted lipids were dissolved in an isopropanol solution, and then with the SPECTROstar Nano (BMG Labtech, Germany), total cholesterol and triglycerides in […] were colorimetrically quantified at 500 nm and 550 nm, respectively, using an enzyme reagent kit (Asan Pharmaceutical Co., Ltd., Seoul, Republic of Korea).

[3] = system: SD rats with a high cholesterol diet (hyperlipidemia model); test: Measurement of body weight and liver weight, visual inspection of liver tissue; details: oral, 4 weeks, Ex. compositions 1,000 mg/kg, atorvastatin 5 mg/kg, mean of five rats
Experimental: as §1
The body weight before drug administration and the body weight after the end of the experiment were measured. The liver weight was measured by weighing the liver extracted after lethal bleeding on the day of autopsy, and visual inspection of liver tissue was performed.

Q: For `CC(C)c1c(C(=O)Nc2ccccc2)c(-c2ccccc2)c(-c2ccc(F)cc2)n1CC[C@@H](O)C[C@@H](O)CC(=O)O` [Atorvastatin], which “Cardiac Risk Factor (CRF)” value ([1]; (TC)/(HDL-c)) is on record?
A: 2.6

Q: What about the LDL/HDL [1] of the same compound?
A: 0.9

Q: What about the “Hepatic total cholesterol concentration” value [2] of the same compound?
A: 146 mg/dL

Q: What about the Hepatic triglyceride concentration [2] of the same compound?
A: 197 mg/dL

Q: What about the Body weight [3] of the same compound?
A: 571.6 g

Q: And the Liver weight [3]?
A: 24.5 g

Q: And the “Liver weight/Body weight” value [3]?
A: 4.26%

Reference: patent US10543246B2, “Composition for preventing or treating hyperlipidemia” (HAWON PHARM. CORPORATION, priority 2014, dated 2020)
